Measured values published in patent US10681909B2, “Herbicidal triazoles” (FMC Corporation, priority 2014, dated 2020).

Key:
[1] = tested on: crabgrass, large; test: Test A preemergence; assay type: in vivo, Digitaria sanguinalis; settings: 0 to 100 scale (0 no effect, 100 complete control)
In short: (§1)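 Herbicidal response was scored on plants treated pre- or postemergence with surfactant-containing, non-phytotoxic solvent formulations. Preemergence meant a directed spray onto soil (loam–sand) holding sown seed; postemergence plants were at one to two leaves.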

[2] = tested on: barnyardgrass; test: Test C flooded paddy test; assay type: in vivo, Echinochloa crus-galli; settings: Flood, applied to paddy water, rating after 13 to 15 d
From the text: (§2) At time of treatment, test pots were flooded to 3 cm above the soil surface, treated by application of test compounds directly to the paddy water, and then maintained at that water depth for the duration of the test. Treated plants and controls were maintained in a greenhouse for 13 to 15 d, after which time all species were compared to controls and visually evaluated. […] A dash (-) response means no test result.

[3] = tested on: morningglory; test: Test A preemergence; assay type: in vivo, Ipomoea spp.; settings: 0 to 100 scale (0 no effect, 100 complete control)
In short: as §1

[4] = tested on: barnyardgrass; test: Test A postemergence; assay type: in vivo, Echinochloa crus-galli; settings: 0 to 100 scale (0 no effect, 100 complete control), approx. 10 d
In short: as §1

[5] = tested on: foxtail, giant; test: Test A postemergence; assay type: in vivo, Setaria faberii; settings: 0 to 100 scale (0 no effect, 100 complete control), approx. 10 d
In short: as §1

[6] = tested on: crabgrass, large; test: Test A postemergence; assay type: in vivo, Digitaria sanguinalis; settings: 0 to 100 scale (0 no effect, 100 complete control), approx. 10 d
In short: as §1

[7] = tested on: morningglory; test: Test A postemergence; assay type: in vivo, Ipomoea spp.; settings: 0 to 100 scale (0 no effect, 100 complete control), approx. 10 d
In short: as §1

[8] = tested on: foxtail, giant; test: Test A preemergence; assay type: in vivo, Setaria faberii; settings: 0 to 100 scale (0 no effect, 100 complete control)
In short: as §1

[9] = tested on: ducksalad; test: Test C flooded paddy test; assay type: in vivo, Heteranthera limosa; settings: Flood, applied to paddy water, rating after 13 to 15 d
From the text: as §2

[10] = tested on: pigweed; test: Test A postemergence; assay type: in vivo, Amaranthus retroflexus; settings: 0 to 100 scale (0 no effect, 100 complete control), approx. 10 d
In short: as §1

[11] = tested on: velvetleaf; test: Test A preemergence; assay type: in vivo, Abutilon theophrasti; settings: 0 to 100 scale (0 no effect, 100 complete control)
In short: as §1

[12] = tested on: barnyardgrass; test: Test A preemergence; assay type: in vivo, Echinochloa crus-galli; settings: 0 to 100 scale (0 no effect, 100 complete control)
In short: as §1

[13] = tested on: pigweed; test: Test A preemergence; assay type: in vivo, Amaranthus retroflexus; settings: 0 to 100 scale (0 no effect, 100 complete control)
In short: as §1

[14] = tested on: velvetleaf; test: Test A postemergence; assay type: in vivo, Abutilon theophrasti; settings: 0 to 100 scale (0 no effect, 100 complete control), approx. 10 d
In short: as §1

[15] = tested on: corn; test: Test A preemergence; assay type: in vivo, Zea mays; settings: 0 to 100 scale (0 no effect, 100 complete control)
In short: as §1

[16] = tested on: wheat; test: Test A preemergence; assay type: in vivo, Triticum aestivum; settings: 0 to 100 scale (0 no effect, 100 complete control)
In short: as §1

[17] = tested on: rice; test: Test C flooded paddy test; assay type: in vivo, Oryza sativa; settings: Flood, applied to paddy water, rating after 13 to 15 d
From the text: as §2

[18] = tested on: corn; test: Test A postemergence; assay type: in vivo, Zea mays; settings: 0 to 100 scale (0 no effect, 100 complete control), approx. 10 d
In short: as §1

[19] = tested on: wheat; test: Test A postemergence; assay type: in vivo, Triticum aestivum; settings: 0 to 100 scale (0 no effect, 100 complete control), approx. 10 d
In short: as §1

[20] = tested on: sedge, umbrella; test: Test C flooded paddy test; assay type: in vivo, Cyperus difformis; settings: Flood, applied to paddy water, rating after 13 to 15 d
From the text: as §2

Cc1nc(-c2ccc(C(F)(F)F)cc2)nn1Cc1cccc(OC(F)(F)F)c1 [Compound 4]
60: Plant response rating, Morningglory ([7]; 500 g ai/ha)
80: Plant response rating, Pigweed ([10]; 500 g ai/ha)
40: Plant response rating, Pigweed ([10]; 125 g ai/ha)
0: Plant response rating, Crabgrass, Large ([1]; 125 g ai/ha) | Plant response rating, Crabgrass, Large ([1]; 500 g ai/ha, approx. 10 d) | Barnyardgrass plant response rating (0 to 100) ([2]; 31 g ai/ha) | Barnyardgrass plant response rating (0 to 100) ([2]; 62 g ai/ha) | Barnyardgrass plant response rating (0 to 100) ([2]; 125 g ai/ha) | Barnyardgrass plant response rating (0 to 100) ([2]; 250 g ai/ha) | Plant response rating, Morningglory ([3]; 125 g ai/ha) | Plant response rating, Morningglory ([3]; 500 g ai/ha, approx. 10 d) | Plant response rating, Barnyardgrass ([4]; 125 g ai/ha) | Plant response rating, Foxtail, Giant ([8]; 125 g ai/ha) | Plant response rating, Foxtail, Giant ([8]; 500 g ai/ha, approx. 10 d) | Ducksalad plant response rating (0 to 100) ([9]; 31 g ai/ha) | Ducksalad plant response rating (0 to 100) ([9]; 62 g ai/ha) | Ducksalad plant response rating (0 to 100) ([9]; 125 g ai/ha) | Ducksalad plant response rating (0 to 100) ([9]; 250 g ai/ha) | Plant response rating, Velvetleaf ([11]; 125 g ai/ha) | Plant response rating, Velvetleaf ([11]; 500 g ai/ha, approx. 10 d) | Plant response rating, Barnyardgrass ([12]; 125 g ai/ha) | Plant response rating, Barnyardgrass ([12]; 500 g ai/ha, approx. 10 d) | Plant response rating, Pigweed ([13]; 125 g ai/ha) | Plant response rating, Pigweed ([13]; 500 g ai/ha, approx. 10 d) | Plant response rating, Velvetleaf ([14]; 125 g ai/ha) | Plant response rating, Corn ([15]; 125 g ai/ha) | Plant response rating, Corn ([15]; 500 g ai/ha, approx. 10 d) | Plant response rating, Wheat ([16]; 125 g ai/ha) | Plant response rating, Wheat ([16]; 500 g ai/ha, approx. 10 d) | Rice plant response rating (0 to 100) ([17]; 31 g ai/ha) | Rice plant response rating (0 to 100) ([17]; 62 g ai/ha) | Rice plant response rating (0 to 100) ([17]; 125 g ai/ha) | Rice plant response rating (0 to 100) ([17]; 250 g ai/ha) | Plant response rating, Wheat ([19]; 125 g ai/ha) | Plant response rating, Wheat ([19]; 500 g ai/ha) | Sedge, Umbrella plant response rating (0 to 100) ([20]; 31 g ai/ha) | Sedge, Umbrella plant response rating (0 to 100) ([20]; 62 g ai/ha) | Sedge, Umbrella plant response rating (0 to 100) ([20]; 125 g ai/ha) | Sedge, Umbrella plant response rating (0 to 100) ([20]; 250 g ai/ha)
10: Plant response rating, Barnyardgrass ([4]; 500 g ai/ha) | Plant response rating, Foxtail, Giant ([5]; 125 g ai/ha) | Plant response rating, Foxtail, Giant ([5]; 500 g ai/ha) | Plant response rating, Crabgrass, Large ([6]; 125 g ai/ha) | Plant response rating, Crabgrass, Large ([6]; 500 g ai/ha) | Plant response rating, Morningglory ([7]; 125 g ai/ha) | Plant response rating, Velvetleaf ([14]; 500 g ai/ha) | Plant response rating, Corn ([18]; 125 g ai/ha) | Plant response rating, Corn ([18]; 500 g ai/ha)

Cc1nc(-c2ccc(C(F)(F)F)cc2)nn1Cc1cccc(C(F)(F)F)c1 [Compound 3]
30: Plant response rating, Foxtail, Giant ([5]; 500 g ai/ha) | Plant response rating, Foxtail, Giant ([8]; 500 g ai/ha, approx. 10 d) | Ducksalad plant response rating (0 to 100) ([9]; 125 g ai/ha)
0: Plant response rating, Crabgrass, Large ([1]; 125 g ai/ha) | Barnyardgrass plant response rating (0 to 100) ([2]; 31 g ai/ha) | Plant response rating, Morningglory ([3]; 125 g ai/ha) | Plant response rating, Morningglory ([3]; 500 g ai/ha, approx. 10 d) | Plant response rating, Barnyardgrass ([4]; 125 g ai/ha) | Plant response rating, Foxtail, Giant ([8]; 125 g ai/ha) | Ducksalad plant response rating (0 to 100) ([9]; 31 g ai/ha) | Plant response rating, Velvetleaf ([11]; 125 g ai/ha) | Plant response rating, Velvetleaf ([11]; 500 g ai/ha, approx. 10 d) | Plant response rating, Barnyardgrass ([12]; 125 g ai/ha) | Plant response rating, Barnyardgrass ([12]; 500 g ai/ha, approx. 10 d) | Plant response rating, Corn ([15]; 125 g ai/ha) | Plant response rating, Corn ([15]; 500 g ai/ha, approx. 10 d) | Plant response rating, Wheat ([16]; 125 g ai/ha) | Plant response rating, Wheat ([16]; 500 g ai/ha, approx. 10 d) | Rice plant response rating (0 to 100) ([17]; 31 g ai/ha) | Rice plant response rating (0 to 100) ([17]; 62 g ai/ha) | Rice plant response rating (0 to 100) ([17]; 125 g ai/ha) | Rice plant response rating (0 to 100) ([17]; 250 g ai/ha) | Plant response rating, Wheat ([19]; 125 g ai/ha) | Plant response rating, Wheat ([19]; 500 g ai/ha) | Sedge, Umbrella plant response rating (0 to 100) ([20]; 31 g ai/ha) | Sedge, Umbrella plant response rating (0 to 100) ([20]; 62 g ai/ha)
50: Sedge, Umbrella plant response rating (0 to 100) ([20]; 250 g ai/ha)
40: Plant response rating, Crabgrass, Large ([1]; 500 g ai/ha, approx. 10 d) | Plant response rating, Crabgrass, Large ([6]; 500 g ai/ha) | Plant response rating, Morningglory ([7]; 125 g ai/ha) | Ducksalad plant response rating (0 to 100) ([9]; 250 g ai/ha) | Plant response rating, Velvetleaf ([14]; 500 g ai/ha) | Sedge, Umbrella plant response rating (0 to 100) ([20]; 125 g ai/ha)
20: Barnyardgrass plant response rating (0 to 100) ([2]; 62 g ai/ha) | Barnyardgrass plant response rating (0 to 100) ([2]; 125 g ai/ha) | Barnyardgrass plant response rating (0 to 100) ([2]; 250 g ai/ha) | Ducksalad plant response rating (0 to 100) ([9]; 62 g ai/ha) | Plant response rating, Corn ([18]; 500 g ai/ha)
100: Plant response rating, Pigweed ([10]; 500 g ai/ha)
10: Plant response rating, Barnyardgrass ([4]; 500 g ai/ha) | Plant response rating, Foxtail, Giant ([5]; 125 g ai/ha) | Plant response rating, Crabgrass, Large ([6]; 125 g ai/ha) | Plant response rating, Pigweed ([13]; 125 g ai/ha) | Plant response rating, Velvetleaf ([14]; 125 g ai/ha) | Plant response rating, Corn ([18]; 125 g ai/ha)
80: Plant response rating, Morningglory ([7]; 500 g ai/ha) | Plant response rating, Pigweed ([13]; 500 g ai/ha, approx. 10 d)
60: Plant response rating, Pigweed ([10]; 125 g ai/ha)
